Here are results for two compounds from US6180599A, “Pharmaceutical composition, containing medium-chain fatty acids as active ingredients, for dental caries and periodontal disease” (priority 1997, dated 2001).

The subject of assay [1] is cariogenic plaque bacteria (standard strains). Briefly: Inhibitory effect of acid production, standard strains. Particulars: ranking; FIG. 1. It counts as cell-based, Streptococcus, Lactobacillus and Actinomyces. As for the experimental part: In order to identify the action by which medium-chain fatty acids inhibit acid production, the inhibitory effect and concentration of acid production were determined in seven kinds of standard cariogenic plaque bacteria. Also, the inhibitory effect of acid production for 20 kinds of cariogenic plaque bacteria, separated from the human oral cavity, was assayed. Liquid culture media used were: Todd-Hewitt broth of Streptococcus, Lactobacilli MRS broth of Lactobacillus and Brain Heart Infusion broth of Actinomyces. […] The final pH of the culture medium was measured after culturing for 24^~ 48 hours in 10% CO2 incubator.

Assay [2] shares this test system. Briefly: Inhibitory effect of bacterial growth, standard strains. The assay is classed as cell-based, Streptococcus, Lactobacillus and Actinomyces. The conditions noted are these: ranking; FIG. 3. The protocol:
In order to evaluate how medium-chain fatty acids influence bacterial growth of cariogenic plaque bacteria, the influence on each bacteria was evaluated after selecting seven kinds of bacterial strains as standard bacteria among cariogenic plaque bacteria. […] The results that medium-chain fatty acids have on influencing bacterial growth of cariogenic plaque bacteria is shown in FIG. 3. And the result of measuring inhibitory effect of bacterial growth of 20 kinds of cariogenic plaque bacteria separated from the human oral cavities is shown in FIG. 4.

In assay [3] the test system is cariogenic plaque bacteria. Briefly: Inhibitory effect on extracellular polysaccharide synthesis (summary). The assay is classed as cell-based, Streptococcus, Lactobacillus and Actinomyces. Particulars: 1 mM; ranking. The protocol: (§1) In order to identify the effect by which medium-chain fatty acids inhibit plaque matrix formation, inhibitory effect and concentration of extracellular polysaccharide synthesis were determined in seven kinds of standard cariogenic plaque bacteria. Also, the inhibitory effect of extracellular polysaccharide synthesis for 20 kinds of cariogenic plaque bacteria, separated from the human oral cavity, was measured. Liquid culture media used were: Todd-Hewitt broth of Streptococcus, Lactobacilli MRS broth of Lactobacillus and Brain Heart Infusion broth of Actinomyces. 0.1 ml of bacterial (or cell) suspension (OD600 =0.5) of each bacteria was inoculated to 5.9 ml of culture media containing 1 mM of medium-chain fatty acids and 2% of glucose, and was cultured for 24^~ 48 hours in 10% CO2 incubator. After culturing, the resultant was centrifuged to precipitate at 5,000×g for 15 minutes, then soluble extracellular polysaccharide was separated and purified from the supernatant and insoluble extracellular polysaccharide from the cell pellet, and then these were quantified. So the experimental results that represent inhibitory effect of medium-chain fatty acids upon extracellular polysaccharide synthesis, are shown in table 1, 2, 3 and 4.

For another assay, the system named is Streptococcus. Briefly: Inhibitory effect on extracellular polysaccharide synthesis, summary over Streptococcus standard strains. Particulars: 1 mM, compared with control group, range over strains, read-out: synthesis of soluble extracellular polysaccharide inhibited by. The assay is classed as cell-based. As for the experimental part:
as §1, with “quantified.” for “quantified. So the experimental results that represent inhibitory effect of medium-chain fatty acids upon extracellular polysaccharide synthesis, are shown in table 1, 2, 3 and 4.”

Another assay has as its system A. viscosus ATCC 15987. Briefly: Inhibitory effect on extracellular polysaccharide synthesis, standard strain. The conditions noted are these: 1 mM, 2% glucose, 24-48 hours. The assay is classed as cell-based. As for the experimental part:
as §1, with “quantified.” for “quantified. So the experimental results that represent inhibitory effect of medium-chain fatty acids upon extracellular polysaccharide synthesis, are shown in table 1, 2, 3 and 4.”

The next assay deals with S. sanguis 10556. Described as above. It counts as cell-based. Particulars: 1 mM. The protocol:
as §1, with “quantified.” for “quantified. So the experimental results that represent inhibitory effect of medium-chain fatty acids upon extracellular polysaccharide synthesis, are shown in table 1, 2, 3 and 4.”

The subject of the next assay is L. casei ATCC 27216. The description is as above. It counts as cell-based, Lactobacillus casei. Particulars: 1 mM, 2% glucose, 24-48 hours. The protocol: as §1, with “quantified.” for “quantified. So the experimental results that represent inhibitory effect of medium-chain fatty acids upon extracellular polysaccharide synthesis, are shown in table 1, 2, 3 and 4.”
For another assay, the system named is L. casei ATCC 4646. Described as above. It counts as cell-based, Lactobacillus casei. As for the experimental part: as §1, with “quantified.” for “quantified. So the experimental results that represent inhibitory effect of medium-chain fatty acids upon extracellular polysaccharide synthesis, are shown in table 1, 2, 3 and 4.”
The nature of assay [4]: Extracellular polysaccharide in liquid medium with fatty acid, no bacteria. The protocol:
as §1, with “quantified.” for “quantified. So the experimental results that represent inhibitory effect of medium-chain fatty acids upon extracellular polysaccharide synthesis, are shown in table 1, 2, 3 and 4.”

Another assay has as its system Lactobacillus. Briefly: Inhibitory effect on extracellular polysaccharide synthesis, summary over Lactobacillus standard strains. The conditions noted are these: 1 mM, compared with control group, according to strains, read-out: synthesis of soluble extracellular polysaccharide inhibited/reduced by. It counts as cell-based. The protocol:
as §1, with “quantified.” for “quantified. So the experimental results that represent inhibitory effect of medium-chain fatty acids upon extracellular polysaccharide synthesis, are shown in table 1, 2, 3 and 4.”

A further assay relates to S. mutans BHT. Briefly: Inhibitory effect on extracellular polysaccharide synthesis, standard strain. The assay is classed as cell-based, Streptococcus mutans. The conditions noted are these: 1 mM. The protocol:
as §1, with “quantified.” for “quantified. So the experimental results that represent inhibitory effect of medium-chain fatty acids upon extracellular polysaccharide synthesis, are shown in table 1, 2, 3 and 4.”

The next assay has as its system S. mutans 10449. The assay is described as above. The assay is classed as cell-based, Streptococcus mutans. The conditions noted are these: 1 mM. The protocol: as §1, with “quantified.” for “quantified. So the experimental results that represent inhibitory effect of medium-chain fatty acids upon extracellular polysaccharide synthesis, are shown in table 1, 2, 3 and 4.”

Another assay deals with S. mutans JC-2. Described as above. The conditions noted are these: 1 mM. It counts as cell-based, Streptococcus mutans. As for the experimental part: as §1, with “quantified.” for “quantified. So the experimental results that represent inhibitory effect of medium-chain fatty acids upon extracellular polysaccharide synthesis, are shown in table 1, 2, 3 and 4.”

Regarding `CCCCCCCCCC(=O)O` [C10, sodium capriate], the “inhibitory effect of acid production, sequence” value in assay [1] is listed as “sodium laurate>sodium capriate>sodium nonanoate”. Further, the “inhibitory effect of bacterial growth, sequence” value in [2] is reported as “sodium laurate>sodium capriate>sodium nonanoate”. Also, the “inhibitory effect of extracellular polysaccharide synthesis, sequence” value in assay [3] is listed as “sodium laurate>sodium capriate>sodium nonanoate”.
Take `CCCCCCCCC(=O)[O-].[Na+]` [C9, sodium nonanoate]: the inhibition at 1000 µM with Streptococcus is 32 to 82%; with S. sanguis 10556 (vs control, read-out: Inhibitory rate, soluble) it was 33%; in the assay with L. casei ATCC 4646 (Lacticaseibacillus casei, ATCC4646, read-out: Inhibitory rate, soluble), 27%; with Lactobacillus, 27%; in the assay on S. mutans BHT (Streptococcus mutans, vs control, read-out: Inhibitory rate, soluble) it was 75%; in the assay with S. mutans 10449 (Streptococcus mutans, 10449, vs control, read-out: Inhibitory rate, soluble), 32%. Besides, in the assay on S. mutans JC-2 (Streptococcus mutans, JC2, vs control, read-out: Inhibitory rate, soluble), the inhibition at 1000 µM was 82%. Also, the “Extracellular polysaccharide, insoluble” value with A. viscosus ATCC 15987 (control 2.1 ± 0.2) is 1.4 ± 0.5 µg/mL; in the assay with S. sanguis 10556 (2% glucose, 24-48 hours, control 0.6 ± 0.3) it was 0.5 ± 0.2 µg/mL; in the assay on L. casei ATCC 27216 (control 5.9 ± 0.4), 5.1 ± 0.5 µg/mL; with L. casei ATCC 4646 (1 mM, 2% glucose, 24-48 hours, control 5.3 ± 0.5), 3.8 ± 0.5 µg/mL; in the assay on S. mutans BHT (2% glucose, 24-48 hours, control 0.5 ± 0.1) it was 0.3 ± 0.1 µg/mL; in the assay on S. mutans 10449 (2% glucose, 24-48 hours, control 0.8 ± 0.3), 0.6 ± 0.2 µg/mL. Besides, the “Extracellular polysaccharide, insoluble” value in the assay with S. mutans JC-2 (2% glucose, 24-48 hours, control 1.1 ± 0.2) is 0.9 ± 0.3 µg/mL. Besides, the “Extracellular polysaccharide, soluble” value came to 241.6 ± 3.9 µg/mL in the assay with A. viscosus ATCC 15987 (control 222.8 ± 3.3); 17.4 ± 8.9 µg/mL in the assay with S. sanguis 10556 (2% glucose, 24-48 hours, control 25.9 ± 4.3); 70.1 ± 3.3 µg/mL with L. casei ATCC 27216 (control 67.3 ± 4.5); 31.9 ± 4.0 µg/mL with L. casei ATCC 4646 (1 mM, 2% glucose, 24-48 hours, control 43.6 ± 7.0); 2.0 ± 0.7 µg/mL in assay [4] (Table 1, 1 mM); 4.6 ± 0.2 µg/mL in assay [4] (Table 2, 1 mM). Besides, the “Extracellular polysaccharide, soluble” value stood at 8.2 ± 0.4 µg/mL in assay [4] (Table 3, 1 mM); 50.8 ± 12.2 µg/mL with S. mutans 10449 (2% glucose, 24-48 hours, control 74.6 ± 1.8); 6.2 ± 3.5 µg/mL with S. mutans JC-2 (2% glucose, 24-48 hours, control 34.4 ± 3.9). The “inhibitory effect of acid production, sequence” value in assay [1] was “sodium laurate>sodium capriate>sodium nonanoate”. Moreover, the “inhibitory effect of bacterial growth, sequence” value in assay [2] is listed as “sodium laurate>sodium capriate>sodium nonanoate”. Further, the “inhibitory effect of extracellular polysaccharide synthesis, sequence” value in assay [3] is listed as “sodium laurate>sodium capriate>sodium nonanoate”.
